Test results taken from US20200306173A1, “LICORICE EXTRACT SYNERGY WITH MENTHOL FOR BREATH FRESHENING IN A CONFECTIONARY PRODUCT” (WM. WRIGLEY JR. COMPANY, priority 2017, published 2020).

Tested on: salivary bacteria
Experiment: Hydrogen sulfide production by salivary bacteria in pooled saliva mixed with L-cysteine, headspace GC with sulfur detector
Assay type: cell-based, human
Details: Example 2, FIG. 2; menthol alone at 4 mg/ml as compared to 2 mg/ml
Description: • 1. About 10-20 ml of saliva was obtained from human subjects and mixed together prior to use. • 2. L-cysteine was dissolved in deionized (D.I.) water to produce 0.5% of cysteine solution. • 3. About 2.5 ml of pooled saliva was mixed with 2.5 ml of cysteine solution in a 20 ml headspace vial. • 4. The amount of hydrogen sulfide generated by salivary bacteria was analyzed by a gas chromatography (GC) equipped with a sulfur detector. Pooled saliva (50% dilution) and L-cysteine (0.25% in D.I. water) were used as the negative controls.
• 1. For evaluation of the headspace concentration of volatile sulfur compounds (VSCs), a gas chromatograph (GC) equipped with a sulfur chemiluminescence detector (SCD) was used. • 2. Each run was completed within 10 minutes. • 3. The level of H2S was analyzed by the GC-SCD by direct injection of 0.25 ml of headspace volume with an automated sampler.
Levels of H2S concentrations [μg/mL] were measured by gas […]. Licorice extract powder (Glycyrrhiza glabra) and menthol were each evaluated individually and then in combination. Saliva with cysteine served as a control reference. Licorice extract powder was sampled individually at 10 mg/ml and 20 mg/ml in a saliva-cysteine mixture. Menthol at 2 mg/ml was sampled individually. Three combinations of licorice and menthol were sampled, varying the amount of licorice extract.

CC1CCC(C(C)C)C(O)C1 (stereo not shown) [menthol]
H2S production (peak gas chromatography area): slight decrease of H2S production in later time points
